In one data set the test system is HCMV. As to the kind of experiment: Anti-HCMV cytopathogenicity test (CPE inhibition). It counts as cell-based, human cytomegalovirus. As to conditions: for EC50: Human betaherpesvirus 5, 144 h, concentration inhibiting CPE by 50% vs untreated virus control, HCMV-infected NHDF cells, M.O.I. 0.001-0.002, 6 days; for SI HCMV (selectivity index = CC50 (NHDF)/EC50 (HCMV)): ratio CC50 (NHDF)/EC50 (HCMV). The procedure:
Anti-HCMV (Anti-Human Cytomegalovirus) Cytopathogenicity Tests The test compounds are employed as 50 millimolar (mM) solutions in dimethyl sulphoxide (DMSO). Ganciclovir, foscarnet and cidofovir are used as reference compounds. After addition of in each case 2 μl of the 50, 5, 0.5 and 0.05 mM DMSO stock solutions to 98 μl portions of cell culture medium in row […] for duplicate determinations, 1:2 dilutions are carried out with 50 μl portions of medium up to row 11 of the 96-well plate. The wells in rows 1 and 12 each contain 50 μl of medium. Then 150 μl portions of a suspension of 1×10^4 cells (human prepuce fibroblasts [NHDF]) are pipetted into each of the wells (row 1=cell control) and, in rows 2-12, a mixture of HCMV-infected and uninfected NHDF cells (M.O.I.=0.001-0.002), i.e. 1-2 infected cells per 1000 uninfected cells. Row 12 (without substance) serves as virus control. The final test concentrations are 250-0.0005 μM. The plates are incubated at 37° C./5% CO2 for 6 days, i.e. until all the cells are infected in the virus controls (100% cytopathogenic effect [CPE]). The wells are then fixed and stained by adding a mixture of formalin and Giemsa's dye (30 minutes), washed with double-distilled water and dried in a drying oven at 50° C. The plates are then assessed visually using an overhead microscope (Plaque Multiplier from Technomara). The following data can be acquired from the test plates: EC50 (HCMV)=substance concentration in μM which inhibits the CPE (cytopathic effect) by 50% compared with the untreated virus control; SI (selectivity index)=CC50 (NHDF)/EC50 (HCMV).

A short description of data set [1]: Cytostatic effect on NHDF cells in the anti-HCMV cytopathogenicity test. It counts as cell-based. The settings on record: human, NHDF cells (human prepuce fibroblasts); maximum concentration with no visible cytostatic effects on NHDF cells vs untreated cell control; 6 days incubation. The procedure: Anti-HCMV (Anti-Human Cytomegalovirus) Cytopathogenicity Tests The test compounds are employed as 50 millimolar (mM) solutions in dimethyl sulphoxide (DMSO). Ganciclovir, foscarnet and cidofovir are used as reference compounds. After addition of in each case 2 μl of the 50, 5, 0.5 and 0.05 mM DMSO stock solutions to 98 μl portions of cell culture medium in row […] for duplicate determinations, 1:2 dilutions are carried out with 50 μl portions of medium up to row 11 of the 96-well plate. The wells in rows 1 and 12 each contain 50 μl of medium. Then 150 μl portions of a suspension of 1×10^4 cells (human prepuce fibroblasts [NHDF]) are pipetted into each of the wells (row 1=cell control) and, in rows 2-12, a mixture of HCMV-infected and uninfected NHDF cells (M.O.I.=0.001-0.002), i.e. 1-2 infected cells per 1000 uninfected cells. Row 12 (without substance) serves as virus control. The final test concentrations are 250-0.0005 μM. The plates are incubated at 37° C./5% CO2 for 6 days, i.e. until all the cells are infected in the virus controls (100% cytopathogenic effect [CPE]). The wells are then fixed and stained by adding a mixture of formalin and Giemsa's dye (30 minutes), washed with double-distilled water and dried in a drying oven at 50° C. The plates are then assessed visually using an overhead microscope (Plaque Multiplier from Technomara). The following data can be acquired from the test plates: CC50 (NHDF)=maximum substance concentration in μM at which no visible cytostatic effects on the cells are evident by comparison with the untreated cell control;

`CCn1cc(NC(=O)Nc2ccc(OC(F)(F)F)cc2)cc1C(=O)N1CCN(c2ccc(C)cn2)CC1` [Example 4, N-(1-Ethyl-5-{[4-(5-methylpyridin-2-yl)piperazin-1-yl]carbonyl}-1H-pyrrol-3-yl)-N′-[4-(trifluoromethoxy)phenyl]urea]: in the data set on HCMV, the EC50 is 0.0007 µM and the “SI HCMV (selectivity index = CC50 (NHDF)/EC50 (HCMV))” value came to 28767. Moreover, in data set [1], the CC50 at 6 days was determined as 21 µM.

As to `Cc1ccc(N2CCN(C(=O)c3cc(NC(=O)Nc4ccc(OC(F)(F)F)cc4)cs3)CC2)nc1` [Example 9, N-(5-{[4-(5-Methylpyridin-2-yl)piperazin-1-yl]carbonyl}-3-thienyl)-N′-[4-(trifluoromethoxy)-phenyl]urea], in the data set with HCMV, a half-maximal effect (EC50) was put at 0.0059 µM and the “SI HCMV (selectivity index = CC50 (NHDF)/EC50 (HCMV))” value turned out to be 3559. It took 21 µM to reach half-maximal cytotoxicity in data set [1] (CC50 at 6 days).

On to `Cc1ccc(N2CCN(C(=O)c3nc(NC(=O)Nc4ccc(OC(F)(F)F)cc4)sc3C)CC2)nc1` [Example 14], for which, in the data set with HCMV, a half-maximal response (EC50) required 0.0016 µM and the “SI HCMV (selectivity index = CC50 (NHDF)/EC50 (HCMV))” value is reported as 7333. This molecule yielded a CC50 at 6 days in data set [1] of 11 µM.

Regarding `Cc1ccc(N2CCN(C(=O)c3cnc(NC(=O)Nc4ccc(OC(F)(F)F)cc4)s3)CC2)nc1` [Example 23], in the data set with HCMV, the EC50 turned out to be 0.0054 µM and the “SI HCMV (selectivity index = CC50 (NHDF)/EC50 (HCMV))” value came out at 2637. Also, the 50% cytotoxic concentration (CC50) at 6 days in data set [1] is 11 µM.

The values above are taken from patent US8410090B2, “Heterocyclylamide-substituted thiazoles, pyrroles and thiophenes” (AiCuris GmbH & Co. KG, priority 2005, dated 2013).
